Values quoted from earlier work in EP1165099B1, “ANGIOTENSIN II AND ANALOGS THEREOF FOR LIMITING SCAR AND ADHESION FORMATION” (UNIVERSITY OF SOUTHERN CALIFORNIA, priority 1999, dated 2006).

Test system: AT2 receptor

For Asp-Arg-Val-Tyr-Ile-His-Pro-Phe [AII], the “affinity for AT2 than AT1” value (ratio of affinity AT2 over AT1) is listed as 100 times.

In the case of “Asp-Arg-Val-Tyr-Ile-Xaa-Pro-Phe [(p-NH2-Phe)6-AII]”, the binding characteristics (experimental models of the cited literature) is listed as “comparable to AT2 antagonists”.
